This passage reports EC50 and CC50 results from patent US12227520B2 (priority 2019, dated 2025).

Where two headings read alike, the source gives them in different places.

For data set [1], the system named is HIV-1 (IIIB). Nature of the data set: Antiviral assay in MT-4 cells (HIV MT-4 antiviral assay). It is filed as cell-based. The conditions noted are these: HIV-1 (IIIB) in MT-4 cells, 5 days incubation, read-out: EC50. The method in brief: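 Read-out is CellTiter-Glo chemiluminescence after 5-day culture at 37° C, giving protection of MT-4 cells from HIV-1 IIIB cytopathicity. Compounds tested in 1:3 dilution series in complete RPMI; controls were no drug, mock infection and 5 μM AZT.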

A short description of data set [2]: Cytotoxicity assay in MT-4 cells. The class given is cell-based, human. Particulars: human, uninfected MT-4 cells, 5 days incubation; read-out: CC50. The gist of the method: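 For cytotoxicity, uninfected MT-4 cells were incubated with compounds 5 days at 37 °C, with 10 μM puromycin marking base cytotoxicity. Parallel plates used HIV-1 IIIB-infected (1:250 stock dilution) or mock cells with 5 μM AZT and no-drug controls. Read-out: CellTiter-Glo chemiluminescence.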

Data set [3] concerns pLai RLuc reporter virus. Nature of the data set: microbe, parasite or virus in culture. The class given is cell-based, HIV. Particulars: Human immunodeficiency virus 1, 72 h. Here is the method:
To quantify the amount of protein binding to human serum, compounds were serially diluted (1:3) in DMSO and acoustically transferred onto 384-well assay plates via a Labcyte ECHO robot. Each plate contained up to 8 test compounds, including negative and positive controls, (DMSO, 5 μM AZT respectively). Assay plates were prepared in duplicate, and tested in either CCM (cell culture media) or HS/CCM (human serum/cell culture media). MT-4 cells were first pre-infected with pLai RLuc reporter virus for 2 h at 37° C., then further diluted in either CCM (RPMI media, 10% FBS, 1% P/S) or HS/CCM (RPMI media, 10% FBS, 50% HS, 1% P/S), and subsequently added to each plate using a Biotek Micro Flow dispenser. After a 72-h incubation in a humidified and temperature controlled incubator (37° C.), Renilla Glo (Promega) was added to all assay plates and chemiluminescence read using an Envision plate-reader. […] To determine the amount of protein binding, EC50 fold shifts (or EC50 shifts) were calculated by dividing EC50 (HS/CCM)/EC50 (CCM).

[4] abbreviates: Human immunodeficiency virus 1, IIIB, MT4, 120 h.
Setting [5] is: read-out: Antiviral Serum Shift RLuc 50% HS, HS/CCM (RPMI media, 10% FBS, 50% HS, 1% P/S), 72-h incubation.
[6] abbreviates: read-out: Antiviral Serum Shift RLuc CCM, CCM (RPMI media, 10% FBS, 1% P/S), 72-h incubation.

Regarding `O=C(NCc1ccc(F)cc1F)c1cn2c(c(O)c1=O)C(=O)N1CCCCC2C1` (racemic) [Example 25, N-(2,4-difluorobenzyl)-12-hydroxy-1,11-dioxo-1,4,5,6,7,11-hexahydro-3H-2,7-methanopyrido[1,2-a][1,4]diazonine-10-carboxamide], the figures for the EC50 in data set [1] (setting [4]), in data set [3] (setting [5]) and in data set [3] (setting [6]) were 1.7 nM, 1.92 nM and 0.191 nM, respectively. Further, the CC50 at 5 days in data set [2] was 12.6 µM.
In the same order, the values of `O=C(NCc1c(F)cc(F)cc1F)c1cn2c(c(O)c1=O)C(=O)N1CCCC(F)(F)[C@@H]2C1` (single isomer, unassigned) [Example 10-1] are 3.2 nM, 1140 nM, 1.02 nM and 37.1 µM.
In the same order, the values of `O=C(NCc1c(F)cc(F)cc1F)c1cn2c(c(O)c1=O)C(=O)N1CCCC(F)(F)[C@H]2C1` (single isomer, unassigned) [Example 10-2] are 1 nM, 5.04 nM, 0.27 nM and 16.1 µM.
`O=C(NCc1ccc(F)cc1F)c1cn2c(c(O)c1=O)C(=O)N1CCCC[C@@H]2C1` (single isomer, unassigned) [Example 25-1]: the EC50 in data set [1] (setting [4]) is 1.3 nM; in data set [3] (setting [5]), 36.6 nM; in data set [3] (setting [6]), 0.42 nM. In addition, the CC50 at 5 days in data set [2] came out at 11.5 µM.
In the case of `O=C(NCc1ccc(F)cc1F)c1cn2c(c(O)c1=O)C(=O)N1CCCC[C@H]2C1` (single isomer, unassigned) [Example 25-2], the results for the EC50 in data set [1] (setting [4]), in data set [3] (setting [5]) and in data set [3] (setting [6]) were 1.46 nM, 1.14 nM and 0.285 nM, respectively. The CC50 at 5 days in data set [2] was determined as 10.8 µM.
In the case of `O=C(NCc1c(F)cc(F)cc1F)c1cn2c(c(O)c1=O)C(=O)N1CC2CCc2ccccc21` (single isomer, unassigned) [Example 38-1], the values for the EC50 in data set [1], in data set [3] (setting [5]) and in data set [3] (setting [6]) were 16.3 nM, 360 nM and 2.64 nM, respectively. The CC50 at 5 days in data set [2] was found to be 11 µM.
Take `O=C(NCc1ccc(F)cc1F)c1cn2c(c(O)c1=O)C(=O)N1CC3CC3CC2C1` (single isomer, unassigned) [Example 42-1, N-(2,4-difluorobenzyl)-5-hydroxy-4,6-dioxo-1,1a,2,4,6,10,11,11a-octahydro-3,10-methanocyclopropa[f]pyrido[1,2-a][1,4]diazonine-7-carboxamide]: the EC50 in data set [1] (setting [4]) was 1.6 nM; in data set [3] (setting [5]), 1.34 nM; in data set [3] (setting [6]), 0.28 nM. In data set [2], the CC50 at 5 days was found to be 7.49 µM.
In the same order, the values of `O=C(NCc1ccc(F)cc1F)c1cn2c(c(O)c1=O)C(=O)N1C[C@@H](F)CC[C@H]2C1` (single isomer, unassigned) [Example 53-2] are 6.2 nM, 2.27 nM, 1.58 nM and 28.4 µM.
In the same order, the values of `O=C(NCc1ccc(F)cc1F)c1cn2c(c(O)c1=O)C(=O)N1C[C@@H](F)CC[C@@H]2C1` (single isomer, unassigned) [Example 53-3] are 1.94 nM, 75.2 nM, 0.223 nM and 11.2 µM.
For `C[C@]1(F)CCCN2C[C@@H]1n1cc(C(=O)NCc3ccc(F)cc3F)c(=O)c(O)c1C2=O` (single isomer, unassigned) [Example 60-2], in that order: 1.97 nM, 102 nM, 0.328 nM and 14 µM.
With `O=C(NCc1c(F)cc(F)cc1F)c1cn2c(c(O)c1=O)C(=O)N1CCc3ccccc3[C@H]2C1` (single isomer, unassigned) [Example 63-1], the EC50 in data set [1] (setting [4]) amounted to 1.7 nM; in data set [3] (setting [5]), 2.16 nM; in data set [3] (setting [6]), 0.461 nM. Also, the CC50 at 5 days in data set [2] came to 13.8 µM.
Regarding `O=C(NCc1c(F)cc(F)cc1F)c1cn2c(c(O)c1=O)C(=O)N1CCC[C@H](Cl)[C@H]2C1` (single isomer, unassigned) [Example 72-1], the EC50 in data set [1] (setting [4]) stood at 1.57 nM; in data set [3] (setting [5]) it was 5.36 nM; in data set [3] (setting [6]), 0.281 nM. Further, in data set [2], the CC50 at 5 days was 9.99 µM.
Turning to `O=C(NCc1c(F)cc(F)cc1F)c1cn2c(c(O)c1=O)C(=O)N1CCC[C@@H](Cl)[C@H]2C1` (single isomer, unassigned) [Example 72-2], the EC50 in data set [1] (setting [4]) is 4.27 nM; in data set [3] (setting [5]), 34 nM; in data set [3] (setting [6]), 0.267 nM. In addition, the 50% cytotoxic concentration (CC50) at 5 days in data set [2] is 12.1 µM.
For `O=C(NCc1c(F)cc(F)cc1F)c1cn2c(c(O)c1=O)C(=O)N1CCC=C(F)[C@@H]2C1` (single isomer, unassigned) [Example 75-1], in that order: 3.76 nM, 298 nM, 0.595 nM and 15.1 µM.
In the same order, the values of `O=C(NCc1c(F)cc(F)cc1F)c1cn2c(c(O)c1=O)C(=O)N1CCC=C(F)[C@H]2C1` (single isomer, unassigned) [Example 75-2] are 2.09 nM, 2.19 nM, 0.473 nM and 26 µM.
In the same order, the values of `O=C(NCc1c(F)cc(F)cc1F)c1cn2c(c(O)c1=O)C(=O)N1C[C@@H](O)CC[C@H]2C1` (single isomer, unassigned) [Example 79-1] are 58.5 nM, 23.5 nM, 19.5 nM and above 50 µM.
Turning to `O=C(NCc1c(F)cc(F)cc1F)c1cn2c(c(O)c1=O)C(=O)N1C[C@H](O)CC[C@H]2C1` (single isomer, unassigned) [Example 79-2], the EC50 in data set [1] (setting [4]) came to 17.7 nM; in data set [3] (setting [5]), 6.61 nM; in data set [3] (setting [6]) it was 5.33 nM. Besides, in data set [2], the CC50 at 5 days was above 50 µM.
For `O=C(NCc1c(F)cc(F)cc1F)c1cn2c(c(O)c1=O)C(=O)N1CCc3cc(F)c(F)cc3[C@H]2C1` (single isomer, unassigned) [Example 110-1], in that order: 2 nM, 2.75 nM, 0.323 nM and 9.87 µM.
Regarding `O=C(NCc1c(F)cc(F)cc1F)c1cn2c(c(O)c1=O)C(=O)N1CCc3cc(F)c(F)cc3[C@@H]2C1` (single isomer, unassigned) [Example 110-2], the EC50 in data set [1] (setting [4]) was determined as 30.5 nM; in data set [3] (setting [5]) it was 53.7 nM; in data set [3] (setting [6]) it was 4.81 nM. Also, the CC50 at 5 days in data set [2] came out at 6.33 µM.
In the case of `O=C(NCc1ccc(F)cc1F)c1cn2c(c(O)c1=O)C(=O)N1CCc3cc(F)c(F)cc3[C@H]2C1` (single isomer, unassigned) [Example 111-1], the values for the EC50 in data set [1] (setting [4]), in data set [3] (setting [5]) and in data set [3] (setting [6]) were 2.01 nM, 7.12 nM and 0.447 nM, respectively. The half-maximal cytotoxic concentration (CC50) at 5 days in data set [2] was 5.91 µM.
In the same order, the values of `C[C@]12CC(F)CCN(C1)C(=O)c1c(O)c(=O)c(C(=O)NCc3c(F)cc(F)cc3F)cn12` (single isomer, unassigned) [Example 112] are 0.712 nM, 27.8 nM, 0.182 nM and 8.03 µM.
In the same order, the values of `O=C(NCc1ccc(F)c(Cl)c1F)c1cn2c(c(O)c1=O)C(=O)N1CCCC(F)(F)[C@H]2C1` (single isomer, unassigned) [Example 117-1] are 1.93 nM, 7.17 nM, 0.33 nM and 13.3 µM.
For `O=C(NCc1ccc(F)c(Cl)c1F)c1cn2c(c(O)c1=O)C(=O)N1CCCC(F)(F)[C@@H]2C1` (single isomer, unassigned) [Example 117-2], the figures for the EC50 in data set [1] (setting [4]), in data set [3] (setting [5]) and in data set [3] (setting [6]) were 3.53 nM, 1270 nM and 0.603 nM, respectively. The CC50 at 5 days in data set [2] turned out to be 15.7 µM.
Consider `C[C@@]12CN(CCc3cc(F)c(F)cc31)C(=O)c1c(O)c(=O)c(C(=O)NCc3c(F)cc(F)cc3F)cn12` (single isomer, unassigned) [Example 120-1], for which the EC50 was 3.54 nM in data set [1] (setting [4]), 4.96 nM in data set [3] (setting [5]) and 0.371 nM in data set [3] (setting [6]). Besides, the CC50 at 5 days in data set [2] was determined as 8.99 µM.
For `C[C@]12CN(CCc3cc(F)c(F)cc31)C(=O)c1c(O)c(=O)c(C(=O)NCc3c(F)cc(F)cc3F)cn12` (single isomer, unassigned) [Example 120-2], the EC50 is above 59.4 nM in data set [1] (setting [4]), 239 nM in data set [3] (setting [5]) and 14 nM in data set [3] (setting [6]). The CC50 at 5 days in data set [2] was 11.1 µM.
For `O=C(NCc1c(F)cc(F)cc1F)c1cn2c(c(O)c1=O)C(=O)N1CCc3ccc(Br)cc3[C@H]2C1` (single isomer, unassigned) [Example 122-1], the EC50 in data set [1] (setting [4]) was found to be 2.57 nM; in data set [3] (setting [5]), 4.78 nM; in data set [3] (setting [6]), 0.534 nM. Moreover, in data set [2], the CC50 at 5 days came to 4.74 µM.

A word on the CC50: it is the concentration that lowers cell viability or growth by half.
